Source: the supplement of paper PMC10307832

Tests used:
Test in all cases: relative viability (nuclei count vs DMSO), 5 days (fraction); higher = more cells survive
[1] = compound: CC1=NN=C(O1)C2=NN=C(C=C2)N3CCC(CC3)OC4=C(C=CC(=C4)F)Cl + Nc1nc2[nH]cc(CCc3ccc(C(=O)N[C@@H](CCC(=O)O)C(=O)O)cc3)c2c(=O)[nH]1 [Pemetrexed] (partner 0.2 µM)
Outline: (§1)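 Values are medians from duplicate plates. Each reflects relative viability, defined as the nuclei count of treated wells over that of vehicle wells. Lung cancer cell lines in 1536-well plates were pin-tool dosed one day after seeding with one drug alone or with a fixed anchor-drug dose plus five library-drug doses (not always all listed) in √10 steps, then fixed, stained and imaged at 4× after 5 days.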

Tosedostat + Navitoclax = compound: CC(C)C[C@@H](C(=O)N[C@H](C(=O)OC1CCCC1)c1ccccc1)[C@H](O)C(=O)NO [Tosedostat] + CC1(C)CCC(c2ccc(Cl)cc2)=C(CN2CCN(c3ccc(C(=O)NS(=O)(=O)c4ccc(N[C@H](CCN5CCOCC5)CSc5ccccc5)c(S(=O)(=O)C(F)(F)F)c4)cc3)CC2)C1 [Navitoclax] (partner 0.5 µM)
Outline: as §1

[2] = compound: CC1=NN=C(O1)C2=NN=C(C=C2)N3CCC(CC3)OC4=C(C=CC(=C4)F)Cl + CC1(C)CCC(c2ccc(Cl)cc2)=C(CN2CCN(c3ccc(C(=O)NS(=O)(=O)c4ccc(N[C@H](CCN5CCOCC5)CSc5ccccc5)c(S(=O)(=O)C(F)(F)F)c4)cc3)CC2)C1 [Navitoclax] (partner 0.5 µM)
Outline: as §1

[3] = compound: CC1=NN=C(O1)C2=NN=C(C=C2)N3CCC(CC3)OC4=C(C=CC(=C4)F)Cl + COc1cc2c(Oc3ccc(NC(=O)C4(C(=O)Nc5ccc(F)cc5)CC4)cc3F)ccnc2cc1OCCCN1CCOCC1 [Foretinib] (partner 0.25 µM)
Outline: as §1

Cell Line | relative viability ([1]; first compound 0.253 µM) | relative viability ([1]; first compound 0.8 µM) | relative viability ([1]; first compound 2.53 µM) | relative viability ([1]; first compound 8 µM) | relative viability (Tosedostat + Navitoclax; first compound 0.02 µM) | relative viability (Tosedostat + Navitoclax; first compound 0.06325 µM) | relative viability (Tosedostat + Navitoclax; first compound 0.2 µM) | relative viability (Tosedostat + Navitoclax; first compound 0.6325 µM) | relative viability (Tosedostat + Navitoclax; first compound 2 µM) | relative viability ([2]; first compound 0.8 µM) | relative viability ([2]; first compound 2.53 µM) | relative viability ([2]; first compound 8 µM) | relative viability ([3]; first compound 0.8 µM) | relative viability ([3]; first compound 2.53 µM) | relative viability ([3]; first compound 8 µM) | relative viability ([2]; first compound 0.253 µM) | relative viability ([3]; first compound 0.253 µM)
NCI-H1650 | 0.317 | 0.349 | 0.33 | 0.343 | 1.25 | 1.05 | 1.27 | 1.01 | 0.825 | 0.895 | 0.816 | 0.868 | 0.928 | 0.998 | 0.852 |  | 
PC-3 [JPC-3] | 1.05 | 0.816 | 1.06 | 0.791 | 0.85 | 0.837 | 0.825 | 0.678 | 0.638 | 0.691 | 0.796 | 0.722 | 0.923 | 0.874 | 0.855 | 0.764 | 0.774
LOU-NH91 |  | 0.386 | 0.394 | 0.424 | 0.753 | 0.657 | 0.615 | 0.543 | 0.483 | 0.577 | 0.697 | 0.705 | 0.847 | 0.927 | 0.9 |  | 0.896
